Source: patent US10457709B2, “Antimicrobial peptides, their variants and uses” (priority 2015, dated 2019)
Ends that are not written are not given here.

B1: En-MAP1: protein of 549 amino acids from an endophyte of Empetrum nigrum, GenBank accession number KC466596 (protein, listed as Empetrum nigrum)
chain: MRLVAHPVPDAPLYALMIKACSMGIPQPNDNLWKPRNPLLAKEEKTSKRGRTAPDTERALDLFREMTLRYNIRPTAEVYTAIIAACVKRDDMYDKGFGLFKKMVELERNRMSSEGHDSTSFAPTRATYNALLRGCARNKDLLRARWILAEMLRTAQAKWQEFMEKSKKGEEGVQEWELLEVEEMRPDTNTMAFLFYTYASHTTSSKAVPETEGKKELEGKAEERASEVTSVSPVSEPPEPMDESKLVYSLPTSSQAILREVTSLLDRIKSDQGQQSNLLSSVQINSKLLNSYIAVLSAHCRSSQVVERISEVVVGTKENPKSLFEETGTSVNGYTCFTVIDACGMMEHSPDTYHLACEMWQRWLSLVENATFHRENPLKAKEIGLDSRTISDCWSAMIRLHAKYNQVDEAMKLVHEFARLYPPASLFNSLTFEPSSTSSSSLSPRKGVQEISPLFSSTSLTHSIRGRDISRIQNTMSQDPTLQFRAVQILHLRLVELETRPKDLAYLSWLLKSYEHQLQPKRPKSLQGDLFTSRQAAYNRIVQQRTSSR

Experiments:
[1] = system: Staphylococcus aureus (ATCC 25923); assay: microbe, parasite or virus in culture; format: cell-based; settings: ATCC 25923
Procedure: (§1) Minimum inhibition concentrations (MICs) were determined against Escherichia coli (ATCC 25922), Staphylococcus aureus (ATCC 25923), Klebsiella pneumoniae (ATCC 10031) and Pseudomonas aeruginosa (ATCC 27853). Also clinical strains of E. coli, K. pneumoniae, E. cloacae, P. aeruginosa, Serratia marcescens, Proteus mirabilis, S. pneumoniae, Acinetobacter baumannii, A. johnsonii and S. aureus were used for MICs assays. Additionally, clinical strains of yeast including Candida albicans, C. glabrata, C. parapsilosis and C. quillermondiae were used. The susceptibility of these microorganisms to Chain peptides were determined using micro broth dilution assay. Colonies of the respective microorganism from Muller Hinton (MH) agar plates incubated overnight were suspended in MH broth media and final concentration of microorganism was adjusted to 5.0×10^5 cfu/ml. An aliquot of 10 μl of each Chain peptide, or gentamicin, tetracycline as reference antibiotics were added in differing concentrations along with 90 μl of bacterial suspension to 96 well polypropylene plates and incubated at 37° C. for 20 to 24 hours. Concentrations of Chain peptides and reference antibiotics ranged from 0.125 to 128 μg/ml and the MICs were recorded as the lowest concentration with no visual growth of bacteria. Similarly, antifungal MICs were tested in Potato dextrose broth.

[2] = system: Klebsiella pneumoniae (ATCC 10031); assay: microbe, parasite or virus in culture; format: cell-based; settings: ATCC 10031
Procedure: as §1

[3] = system: Escherichia coli (ATCC 25922); assay: microbe, parasite or virus in culture; format: cell-based; settings: ATCC 25922
Procedure: as §1

[4] = system: Pseudomonas aeruginosa (ATCC 27853); assay: microbe, parasite or virus in culture; format: cell-based; settings: ATCC 27853
Procedure: as §1

E. coli = settings: ATCC 25922
Procedure: as §1

S. aureus [5] = settings: ATCC 25923
Procedure: as §1

S. aureus [6] = assay: Antibacterial activity analysis of En-MAP1 protein; format: cell-based, Staphylococcus aureus
Procedure: Both folded and unfolded proteins were tested for antibacterial activity against S. aureus by pipetting 10 μg of protein on the S. aureus culture on an LB plate. The activity was also tested in folded and unfolded protein digested with trypsin in 0.01% acetic acid at concentrations of 30 and 60 μg/ml.
The gene En-MAP1 was then cloned into the expression plasmid pET23(b) to analyze whether the antibacterial activity was due to the protein itself. The resulting construct pET23(b)-FosS1A contained the En-MAP1 gene in-frame. When transformed into E. coli expression strain BL21 (DE3) pLyseS and BL21 (DE3) pRARE, a protein of approximately 63 kDa (predicted mass 63.3 kDa) was produced in the cell extracts of induced, but not in the uninduced cultures. The resulting protein includes the amino acid sequence […]- prior to the first amino acid of the protein sequence. The protein was expressed in both strains as inclusion bodies and they were purified and folded in a His-Trap column, resulting in about ˜1 mg of pure folded protein.

Molecule	Minimum inhibitory concentration, Staphylococcus aureus (ATCC 25923) [1]	Minimum inhibitory concentration, Klebsiella pneumoniae (ATCC 10031) [2]	Minimum inhibitory concentration, Escherichia coli (ATCC 25922) [3]	Minimum inhibitory concentration, Pseudomonas aeruginosa (ATCC 27853) [4]	Minimal inhibitory concentration (MIC), E. coli (E. coli)	Minimal inhibitory concentration (MIC), S. aureus (S. aureus [5])	Antibacterial activity against S. aureus (S. aureus [6]; expressed, folded protein)	Antibacterial activity against S. aureus after trypsin digestion (S. aureus [6]; folded full protein digested with trypsin, data not shown)	Antibacterial activity against S. aureus after trypsin digestion (S. aureus [6]; trypsin digest of the unfolded protein)
NRIVQQRTSSR [Chain200]	>128 µg/mL	>128 µg/mL	>128 µg/mL	>128 µg/mL	95 µM	95 µM	–	–	–
B1	–	–	–	–	–	–	no activity was observed	antibacterial activity was observed	No activity was detected
